For the assay, the system named is J774.1. Kind of assay: Inhibition of LPS-induced NO production in mouse J774.1cells after 24 hrs. The assay is classed as functional, cell-based. Particulars: J774.1, 24 h.

With `C=C[C@@]1(C)C[C@@H](O)[C@@H]2[C@@]3(C)C=C(OC(C)=O)C(=O)C(C)(C)[C@@H]3C[C@@H](OC(C)=O)[C@@]2(O)[C@H]1OC(C)=O`, the IC50 (in general, the midpoint of a concentration-inhibition curve) was 119 µM.
The figure for `C=C[C@@]1(C)CC(=O)[C@H]2[C@](O)(C1=O)[C@H](OC(C)=O)C[C@H]1C(C)(C)[C@H](O)[C@H](OC(=O)c3ccccc3)[C@H](O)[C@@]12C` [ORTHOSIPHONONE C] is 81.8 µM.
As for `C=C[C@@]1(C)CC(=O)[C@H]2[C@](O)(C1=O)[C@H](OC(C)=O)C[C@H]1C(C)(C)[C@H](OC(=O)c3ccccc3)[C@H](O)[C@H](OC(=O)c3ccccc3)[C@@]12C` [ORTHOSIPHONONE D], the figure is 35 µM; as for `C=C[C@H]1[C@@H](OC(=O)c2ccccc2)[C@H]2[C@](O)(C(=O)[C@@]1(C)O)[C@H](OC(C)=O)C[C@H]1C(C)(C)[C@H](OC(=O)c3ccccc3)[C@H](O)[C@H](OC(C)=O)[C@@]12C` [STAMINOL C], 61.1 µM.
As for `C=C[C@H]1[C@@H](OC(=O)c2ccccc2)[C@@H]2[C@@]3(C)C=C(OC(C)=O)C(=O)C(C)(C)[C@@H]3C[C@@H](OC(C)=O)[C@@]2(O)C(=O)[C@@]1(C)O` [STAMINOL D], the figure is 92 µM.
In turn, `CNC(=N)NCCC[C@H](N)C(=O)O` [TILARGININE] yielded an IC50 of 35.7 µM.
